Like-named read-outs stand apart in the source and are kept apart here.
Assays:
[1] = Plasma concentration of omeprazole and hydroxyomeprazole by HPLC 3 hours after a single oral 20 mg omeprazole dose; format: in vivo, human; conditions: for Mean OH-OMP concentration ± SD / concentration at 3 h: plasma, 3 h after single oral 20 mg omeprazole; for concentration at 3 h: human, po, 20 mg, read-out: Mean OMP concentration ± SD
Text: (§1) The study protocol was approved by ethics committee of Tehran University of Medical Sciences (ethical no. 11208). Generally one hundred and eighty (60 women and 120 men) unrelated healthy Iranian volunteers with the mean age of between 20–55 years and average body weight of 45–89 kg took part in this study. All participants signed written informed consent of this project. The study was completed by contribution of faculties of pharmacy of Tehran, Yazd, Kermanshah and Kerman University of Medical Sciences. The participants were students or stuffs of pharmacy schools, with no history of any illness or medicine consumption. No smoking and consumption of medicine that would affect CYP2C19 activity was permitted for one week before and during the study.
(§2) After an overnight fast for at least 8 hours, volunteers took 20 mg omeprazole capsule (Abidi pharmaceuticals) with 250 milliliter tap water. Ten ml venous blood sample was collected from each subject 3 hours after administration of omeprazole and transferred into tubes containing 10 μl of 10% EDTA. Five ml of blood samples were centrifuged for 5 min at 4000 rpm and the plasma was separated and transferred to Eppendorf tube and stored at −80°C up to the day of analysis. The other 5 ml blood samples were stored directly in −80°C for genotyping analysis.
(§3) Omeprazole powder was purchased from TMAD (Iran). 5-hydroxyomeprazole was a kind donation by AstraZeneca (Sweden). The concentration of omeprazole and 5-hydroxyomeprazole was analyzed by HPLC method as described by Rezk et al. with a few modifications. Briefly 500 μl plasma was extracted by liquid-liquid extraction using 1500 μl ethyl acetate. After orbital mixing for 10 min and centrifuging at 4000 × g for 10 min, the upper organic layer was separated and transferred to glass tube and then evaporated to dryness under gentle stream of air. Finally the residue was dissolved in 250 μl mobile phase and 100 μl of this sample was injected to HPLC system. The mobile phase was a combination of dibasic sodium phosphate buffer (0.025 mol/lit, pH 6): acetonitrile: methanol (73: 18: 8 V/V/V). The HPLC apparatus consisted of a low pressure HPLC pump, UV detector (λ = 302 nm) all from Knauer (Berlin, Germany). The chromatographic separation was performed by using Chromolit™ Performance RP-18e 100 mm × 4.6 mm, 5 μm particle size. Flow rate was adjusted to 1 ml/min.

[2] = set-up: method as in PMID 20804307; conditions: Iranian patients with erosive reflux esophagitis, cited from earlier work
CYP2C19 [3] = conditions: cited from earlier work
CYP2C19 [4] = target: T1, CYP2C19 (Homo sapiens, UniProt P33261); test: Omeprazole hydroxylation index (omeprazole/hydroxyomeprazole in plasma) as measure of CYP2C19 activity; format: in vivo; set-up: key to Median hydroxylation index / Median hydroxylation index (HI) / Mean HI ± SD: ratio: plasma omeprazole / 5-hydroxyomeprazole concentration at 3 h
T1 construct: volunteers took 20 mg omeprazole capsule (Abidi pharmaceuticals) with 250 milliliter tap water; from tissue; host or cells: in vivo, endogenous enzyme of healthy human volunteers; metabolites measured in plasma
T1 sequence (P33261 whole entry): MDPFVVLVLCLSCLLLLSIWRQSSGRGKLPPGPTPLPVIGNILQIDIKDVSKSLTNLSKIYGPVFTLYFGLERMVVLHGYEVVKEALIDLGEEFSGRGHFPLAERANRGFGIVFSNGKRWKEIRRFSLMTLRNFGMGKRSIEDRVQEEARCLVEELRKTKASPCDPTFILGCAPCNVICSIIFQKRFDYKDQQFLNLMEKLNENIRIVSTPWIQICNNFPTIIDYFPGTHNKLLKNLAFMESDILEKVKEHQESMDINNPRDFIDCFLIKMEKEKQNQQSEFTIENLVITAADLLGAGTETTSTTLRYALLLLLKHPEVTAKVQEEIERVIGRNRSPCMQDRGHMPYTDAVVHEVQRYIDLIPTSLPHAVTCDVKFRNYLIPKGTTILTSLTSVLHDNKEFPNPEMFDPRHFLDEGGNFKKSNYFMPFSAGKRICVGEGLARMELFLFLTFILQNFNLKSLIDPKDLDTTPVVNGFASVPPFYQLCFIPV
Text: as §1, §2, §3
(§4) The allele frequencies differences between population were estimated using two-tailed Fisher’s exact test. The 95% confidence intervals (CI) were calculated using Confidence Interval Analysis software. The relation of sex and genotype was assessed by two tailed Fisher’s exact test. The observed and expected frequencies were calculated by using Hardy-Weinberg equation. The two-tailed Fisher’s exact test was used to evaluate deviation of genotype frequencies in the studied population from Hardy-Weinberg equilibrium. The enzyme activity was compared by using omeprazole hydroxylation index. The hydroxylation index (HI) of omeprazole 3 hours after administration of omeprazole was calculated by dividing omeprazole to 5-hydroxyomeprazol plasma concentration. The mean HI in different genotypes were compared by Mann–Whitney two tailed test. The impact of sex on HI of omeprazole was also evaluated using Mann–Whitney two tailed test. The inter-individual variability in metabolism of omeprazole was represented by probit plot. For drawing probit plot, the log of HI was calculated, the antimode value was determined using Microsoft office excel 2010. The normality of HI distribution was analyzed by frequency distribution histogram and also by Kolmogorov- Smirnov test. All statistical analyses were performed by Sigma Plot version 12.0 and Graph Pad Prism version 5 softwares and P < 0.05 was considered as statistically significant difference.

CYP2C19 [5] = test: as above; format: in vivo, human; set-up: key to Median hydroxylation index / Median hydroxylation index (HI) / Mean HI ± SD: ratio: plasma omeprazole / 5-hydroxyomeprazole concentration at 3 h; conditions: for Mean HI ± SD: 3 h after single oral 20 mg omeprazole; for Median hydroxylation index: all genotypes
Text: as §1, §2, §3, §4

Compound: COc1ccc2nc([S+]([O-])Cc3ncc(CO)c(OC)c3C)[nH]c2c1 (stereo not shown) [hydroxyomeprazole, 5-hydroxyomeprazole]
- Hydroxyomeprazole plasma concentration, women compared with men ([1]; 60 women vs 120 men, P > 0.05): not statistically different
- Mean OH-OMP concentration ± SD ([1]; genotype 1*1, Men (53)): 151.01 ± 26.38 ng/mL
- Mean OH-OMP concentration ± SD ([1]; genotype 1*1, Total (75)): 163.74 ± 32.25 ng/mL
- Mean OH-OMP concentration ± SD ([1]; genotype 1*1, Women (22)): 194.40 ± 60.84 ng/mL
- Mean OH-OMP concentration ± SD ([1]; genotype 1*2, Men (20)): 165.53 ± 23.55 ng/mL
- Mean OH-OMP concentration ± SD ([1]; genotype 1*2, Total (33)): 177.79 ± 38.39 ng/mL
- Mean OH-OMP concentration ± SD ([1]; genotype 1*2, Women (13)): 194.66 ± 52.56 ng/mL
- Mean OH-OMP concentration ± SD ([1]; genotype 1*17, Men (37)): 178.07 ± 44.57 ng/mL
- Mean OH-OMP concentration ± SD ([1]; genotype 1*17, Total (52)): 177.05 ± 37.53 ng/mL
- Mean OH-OMP concentration ± SD ([1]; genotype 1*17, Women (15)): 174.51 ± 28.01 ng/mL
- Mean OH-OMP concentration ± SD ([1]; genotype 2*2, Men (1)): 103.58 ng/mL
- Mean OH-OMP concentration ± SD ([1]; genotype 2*2, Total (4)): 104.67 ± 10.55 ng/mL
- Mean OH-OMP concentration ± SD ([1]; genotype 2*2, Women (3)): 105.03 ± 13.80 ng/mL
- Mean OH-OMP concentration ± SD ([1]; genotype 2*17, Men (2)): 169.82 ± 84.95 ng/mL
- Mean OH-OMP concentration ± SD ([1]; genotype 2*17, Total (6)): 172.79 ± 63.58 ng/mL
- Mean OH-OMP concentration ± SD ([1]; genotype 2*17, Women (4)): 178.72 ± 33.59 ng/mL
- Mean OH-OMP concentration ± SD ([1]; genotype 17*17, Men (5)): 201.69 ± 32.08 ng/mL
- Mean OH-OMP concentration ± SD ([1]; genotype 17*17, Total (10)): 203.31 ± 34.93 ng/mL
- Mean OH-OMP concentration ± SD ([1]; genotype 17*17, Women (5)): 204.92 ± 41.35 ng/mL

Compound: COc1ccc2[nH]c([S+]([O-])Cc3ncc(C)c(OC)c3C)nc2c1 (stereo not shown) [omeprazole]
- Successful treatment response ([2]; EM genotype): 43%
- Successful treatment response ([2]; HetEM genotype): 95%
- Omeprazole plasma concentration, women compared with men ([1]; 60 women vs 120 men, P > 0.05): not statistically different
- Mean omeprazole plasma concentration, fold higher in CYP2C19*2*2 than CYP2C19*1*1 ([1]; *2*2 vs *1*1, P < 0.001): 11 fold
- Mean omeprazole plasma concentration, fold higher in CYP2C19*2*2 than CYP2C19*17*17 ([1]; *2*2 vs *17*17, P < 0.001): 19.0 fold
- concentration at 3 h ([1]; both sexes, genotype 1*1, Total (75)): 125 ± 27.2 ng/mL
- concentration at 3 h ([1]; both sexes, genotype 1*2, Total (33)): 319 ± 150 ng/mL
- concentration at 3 h ([1]; both sexes, genotype 1*17, Total (52)): 118 ± 10.2 ng/mL
- concentration at 3 h ([1]; both sexes, genotype 2*2, Total (4)): 1390 ± 123 ng/mL
- concentration at 3 h ([1]; both sexes, genotype 2*17, Total (6)): 289 ± 97.5 ng/mL
- concentration at 3 h ([1]; both sexes, genotype 17*17, Total (10)): 71 ± 10.3 ng/mL
- concentration at 3 h ([1]; female, genotype 1*1, Women (22)): 128 ± 39.9 ng/mL
- concentration at 3 h ([1]; female, genotype 1*2, Women (13)): 365 ± 265 ng/mL
- concentration at 3 h ([1]; female, genotype 1*17, Women (15)): 120 ± 20.1 ng/mL
- concentration at 3 h ([1]; female, genotype 2*2, Women (3)): 1360 ± 133 ng/mL
- concentration at 3 h ([1]; female, genotype 2*17, Women (4)): 324 ± 39.9 ng/mL
- concentration at 3 h ([1]; female, genotype 17*17, Women (5)): 68.3 ± 5.73 ng/mL
- concentration at 3 h ([1]; male, genotype 1*1, Men (53)): 123 ± 20.8 ng/mL
- concentration at 3 h ([1]; male, genotype 1*2, Men (20)): 290 ± 168 ng/mL
- concentration at 3 h ([1]; male, genotype 1*17, Men (37)): 117 ± 16.1 ng/mL
- concentration at 3 h ([1]; male, genotype 2*2, Men (1)): 1480 ng/mL
- concentration at 3 h ([1]; male, genotype 2*17, Men (2)): 271 ± 119 ng/mL
- concentration at 3 h ([1]; male, genotype 17*17, Men (5)): 73.7 ± 13.7 ng/mL
- Antimode for HI of omeprazole (CYP2C19 [3]; Colombians): 0.63
- Antimode for HI of omeprazole (CYP2C19 [3]; Indian): 14.4
- Antimode for HI of omeprazole (CYP2C19 [3]; Koreans): 7.0
- Mean HI, fold higher in CYP2C19*1*1 than CYP2C19*1*17 (CYP2C19 [3]; Ramsjö et al.): 1.1 fold
- Mean HI, fold higher in CYP2C19*1*1 than CYP2C19*17*17 (CYP2C19 [3]; Ramsjö et al.): 3.2 fold
- Median HI, fold higher in homozygous CYP2C19*1 than CYP2C19*1*17 carriers (CYP2C19 [3]; Sim et al.): 1.2 fold
- Median HI, fold higher in homozygous CYP2C19*1 than homozygous CYP2C19*17 carriers (CYP2C19 [3]; Sim et al.): 2 fold
- Antimode for HI of omeprazole (CYP2C19 [3]; Thai population): 7.0
- Antimode for HI of omeprazole (CYP2C19 [3]; West Mexicans): 3.98
- Median hydroxylation index (HI) (CYP2C19 [4]; CYP2C19 *1*1, 3 h after 20 mg omeprazole orally): 0.78
- Median hydroxylation index (HI) (CYP2C19 [4]; CYP2C19 *1*17, 3 h after 20 mg omeprazole orally): 0.71
- Omeprazole HI, women compared with men (CYP2C19 [5]; 60 women vs 120 men, P > 0.05): not statistically different
- Median HI, fold higher in CYP2C19*1 homozygous than in CYP2C19*17 homozygous subjects (CYP2C19 [5]; *1*1 vs *17*17, P < 0.001): 2.17 fold
- Median HI, fold higher in CYP2C19*1*17 than in CYP2C19*17*17 subjects (CYP2C19 [5]; *1*17 vs *17*17, P < 0.001): 1.97 fold
- Mean HI ± SD (CYP2C19 [5]; genotype 1*1, Men (53)): 0.89 ± 0.30
- Mean HI ± SD (CYP2C19 [5]; genotype 1*1, Women (22)): 0.78 ± 0.27
- Mean HI ± SD (CYP2C19 [5]; genotype 1*2, Men (20)): 2.29 ± 1.19
- Mean HI ± SD (CYP2C19 [5]; genotype 1*2, Women (13)): 2.24 ± 0.79
- Mean HI ± SD (CYP2C19 [5]; genotype 1*17, Men (37)): 0.77 ± 0.32
- Mean HI ± SD (CYP2C19 [5]; genotype 1*17, Women (15)): 0.72 ± 0.18
- Mean HI ± SD (CYP2C19 [5]; genotype 2*2, Men (1)): 14.25
- Mean HI ± SD (CYP2C19 [5]; genotype 2*2, Women (3)): 13.37 ± 3.80
- Mean HI ± SD (CYP2C19 [5]; genotype 2*17, Men (2)): 2.05 ± 0.67
- Mean HI ± SD (CYP2C19 [5]; genotype 2*17, Women (4)): 1.97 ± 0.62
- Mean HI ± SD (CYP2C19 [5]; genotype 17*17, Men (5)): 0.36 ± 0.04
- Mean HI ± SD (CYP2C19 [5]; genotype 17*17, Women (5)): 0.34 ± 0.08
- Median hydroxylation index (CYP2C19 [5]; men (120)): 0.86
- Median hydroxylation index (CYP2C19 [5]; women (60)): 0.84

— article PMC4266903, “Hydroxylation index of omeprazole in relation to CYP2C19 polymorphism and sex in a healthy Iranian population” (DARU Journal of Pharmaceutical Sciences, 2014)
